The values that follow come from ChEMBL document CHEMBL1201862, “PubChem BioAssay data set” (2004).

Activity calls are given as the source filed them.

Assay [1] addresses Mitogen-activated protein kinase kinase kinase kinase 4 (Homo sapiens, UniProt O95819). Type of assay: functional.
Assay [2] has as its target MAP kinase-activated protein kinase 2 (Homo sapiens, UniProt P49137). Type of assay: functional.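 Further: measured as one member of a kinome-wide kinase panel.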
The next assay deals with Activin receptor type-1 (Homo sapiens, UniProt Q04771). Put plainly: Navigating the Kinome. Panel member name: ACVR1. Type of assay: functional.
The target of assay [3] is 5'-AMP-activated protein kinase catalytic subunit alpha-1 (Homo sapiens, UniProt Q13131). The assay is classed as functional.
Assay [4] deals with Serine/threonine-protein kinase PLK3 (Homo sapiens, UniProt Q9H4B4). The assay is classed as functional.
Assay [5] concerns the target Serine/threonine-protein kinase Chk2 (Homo sapiens, UniProt O96017). Type of assay: functional.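 Further: CHEK2 entry within a kinome-wide screening panel.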
Assay [6] concerns the target Insulin-like growth factor 1 receptor (Homo sapiens, UniProt P08069). Kind of assay: Navigating the Kinome. Panel member name: IGF1R. The assay is classed as functional.
Assay [7] has as its target Testis-specific serine/threonine-protein kinase 2 (Homo sapiens, UniProt Q96PF2). The assay is classed as functional.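 Further: part of the Navigating the Kinome panel, target entry STK22B.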
In assay [8] the target is Rho-associated protein kinase 1 (Homo sapiens, UniProt Q13464). Type of assay: functional.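 Further: measured within a broad kinome-wide panel profiling many kinases.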
The target in the next assay is Ephrin type-A receptor 2 (Homo sapiens, UniProt P29317). The assay is classed as functional.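 Further: EPHA2 tested as one member of a kinome-wide kinase panel.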
Assay [9] addresses Tyrosine-protein kinase Srms (Homo sapiens, UniProt Q9H3Y6). The assay is classed as functional.
The target in assay [10] is Dual specificity tyrosine-phosphorylation-regulated kinase 3 (Homo sapiens, UniProt O43781). Type of assay: functional.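 Further: measured as one member of a broad kinase panel.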
Assay [11] concerns the target Casein kinase I isoform alpha (Homo sapiens, UniProt P48729). The assay is classed as functional.
Assay [12] addresses Calcium/calmodulin-dependent protein kinase type II subunit gamma (Homo sapiens, UniProt Q13555). The assay is classed as functional.
Assay [13] concerns the target Tyrosine-protein kinase JAK2 (Homo sapiens, UniProt O60674). Type of assay: functional.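 Further: JAK2 tested as one member of a kinase panel.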
Assay [14] addresses Cyclin-dependent kinase 5 (Homo sapiens, UniProt Q00535). The assay is classed as functional.
Assay [15] deals with Serine/threonine-protein kinase Nek2 (Homo sapiens, UniProt P51955). The assay is classed as functional.
The target of assay [16] is Protein kinase C zeta type (Homo sapiens, UniProt Q05513). The assay is classed as functional.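 Further: measured as one member of a broad kinase profiling panel.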
In assay [17] the target is Receptor-type tyrosine-protein kinase FLT3 (Homo sapiens, UniProt P36888). Type of assay: functional.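 Further: FLT3 was tested as one member of a kinome-wide kinase panel.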
For assay [18], the target named is Tyrosine-protein kinase ITK/TSK (Homo sapiens, UniProt Q08881). The assay is classed as functional.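 Further: affinity for ITK measured as one member of a broad kinase panel profiling binding across the kinome.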
Assay [19] concerns the target Lymphokine-activated killer T-cell-originated protein kinase (Homo sapiens, UniProt Q96KB5). Type of assay: functional.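 Further: value comes from a kinase panel screen in which TOPK was one of the panel members.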
In assay [20] the target is Leukocyte tyrosine kinase receptor (Homo sapiens, UniProt P29376). Put plainly: Navigating the Kinome. Panel member name: LTK. The assay is classed as functional.
Assay [21] addresses Interleukin-1 receptor-associated kinase 4 (Homo sapiens, UniProt Q9NWZ3). The assay is classed as functional.
Assay [22] has as its target Serine/threonine-protein kinase D3 (Homo sapiens, UniProt O94806). The assay is classed as functional.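 Further: determined within a kinase panel screen, with PRKCN as the panel member.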
Assay [23] concerns the target Leucine-rich repeat serine/threonine-protein kinase 2 (Homo sapiens, UniProt Q5S007). Type of assay: functional.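 Further: value from a broad kinome-wide panel profiling study in which LRRK2 was one of the kinases tested.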
Assay [24] deals with Tyrosine-protein kinase Fer (Homo sapiens, UniProt P16591). The assay is classed as functional.
In assay [25] the target is Calcium/calmodulin-dependent protein kinase type II subunit delta (Homo sapiens, UniProt Q13557). The assay is classed as functional.
The target in assay [26] is Serine/threonine-protein kinase TAO1 (Homo sapiens, UniProt Q7L7X3). The assay is classed as functional.
Assay [27] has as its target Casein kinase I isoform gamma-1 (Homo sapiens, UniProt Q9HCP0). Type of assay: functional.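 Further: measured as the CSNK1G1 member of a kinome profiling panel.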
For assay [28], the target named is Glycogen synthase kinase-3 alpha (Homo sapiens, UniProt P49840). Type of assay: functional.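 Further: GSK3A result taken from a broad kinome-wide kinase panel.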
For assay [29], the target named is Serine/threonine-protein kinase BRSK1 (Homo sapiens, UniProt Q8TDC3). The assay is classed as functional.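 Further: measured within a kinome-wide kinase panel, with the target listed as KIAA1811.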
The target of assay [30] is Ribosomal protein S6 kinase beta-1 (Homo sapiens, UniProt P23443). The assay is classed as functional.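 Further: measured as one member of a kinome-wide profiling panel.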
In assay [31] the target is T1, Rac GTPase-activating protein 1 (Homo sapiens, UniProt Q9H0H5).
T1 sequence (Q9H0H5 whole entry): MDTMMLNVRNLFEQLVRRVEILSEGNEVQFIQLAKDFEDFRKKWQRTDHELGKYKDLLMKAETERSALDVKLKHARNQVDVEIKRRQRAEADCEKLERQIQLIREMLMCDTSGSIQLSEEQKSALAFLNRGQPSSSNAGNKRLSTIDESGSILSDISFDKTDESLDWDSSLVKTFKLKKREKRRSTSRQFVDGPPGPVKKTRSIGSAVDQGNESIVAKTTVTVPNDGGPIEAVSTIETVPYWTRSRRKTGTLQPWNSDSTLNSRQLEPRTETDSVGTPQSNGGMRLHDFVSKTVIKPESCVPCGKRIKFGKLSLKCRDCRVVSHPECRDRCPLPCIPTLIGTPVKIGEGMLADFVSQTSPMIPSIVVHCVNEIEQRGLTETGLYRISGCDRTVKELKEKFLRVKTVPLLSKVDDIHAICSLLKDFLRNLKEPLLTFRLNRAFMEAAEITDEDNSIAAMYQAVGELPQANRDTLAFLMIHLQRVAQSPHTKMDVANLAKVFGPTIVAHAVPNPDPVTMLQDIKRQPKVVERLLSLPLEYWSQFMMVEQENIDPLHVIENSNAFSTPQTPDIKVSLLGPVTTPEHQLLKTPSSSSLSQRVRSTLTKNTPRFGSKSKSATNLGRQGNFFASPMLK
Kind of assay: blockers of MgcRacGAP-driven Rac1 GTP hydrolysis – biochemical, ADP Hunter fluorescence, primary and confirmatory, confirmation (AID 624330). Type of assay: functional.

The next assay deals with Genome polyprotein (dengue virus type 2, UniProt P29990). Kind of assay: flavivirus cap methylation enzyme inhibition – biochemical, confirmation dose response, primary screen (AID 588689). Type of assay: functional.
For assay [32], the target named is Heat shock protein HSP 90-alpha (Homo sapiens, UniProt P07900). Put plainly: Luminescence-based dose response biochemical high throughput screening assay for inhibitors of the Heat Shock Protein 90 (HSP90). [Related pubchem assays: 1831 (Summary AID.), 1846 (Confirmation screen.), 1789 (Primary screen.)].
For assay [33], the target named is Bifunctional protein GlmU (Mycobacterium tuberculosis, UniProt P9WMN3). Put plainly: Inhibitors of Mycobacterial Glucosamine-1-phosphate acetyl transferase (GlmU). Secondary screen. Set-up: species or system Mycobacterium tuberculosis H37Rv.
Sequence of Bifunctional protein GlmU (P9WMN3 whole entry): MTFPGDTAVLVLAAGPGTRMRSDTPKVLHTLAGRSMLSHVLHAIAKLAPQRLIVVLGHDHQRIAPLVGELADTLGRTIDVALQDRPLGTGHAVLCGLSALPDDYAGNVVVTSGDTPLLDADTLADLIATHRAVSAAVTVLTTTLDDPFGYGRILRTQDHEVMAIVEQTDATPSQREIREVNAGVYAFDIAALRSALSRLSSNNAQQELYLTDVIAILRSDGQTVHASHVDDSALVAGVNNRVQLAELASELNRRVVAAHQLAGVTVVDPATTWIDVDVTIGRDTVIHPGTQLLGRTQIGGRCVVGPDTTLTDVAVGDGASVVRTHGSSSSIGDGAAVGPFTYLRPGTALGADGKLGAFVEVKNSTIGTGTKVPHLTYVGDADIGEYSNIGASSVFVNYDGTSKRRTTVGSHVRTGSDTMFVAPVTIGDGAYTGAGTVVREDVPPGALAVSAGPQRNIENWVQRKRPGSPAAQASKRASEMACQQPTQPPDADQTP

Sequence of Calcium/calmodulin-dependent protein kinase type II subunit gamma (Q13555 whole entry): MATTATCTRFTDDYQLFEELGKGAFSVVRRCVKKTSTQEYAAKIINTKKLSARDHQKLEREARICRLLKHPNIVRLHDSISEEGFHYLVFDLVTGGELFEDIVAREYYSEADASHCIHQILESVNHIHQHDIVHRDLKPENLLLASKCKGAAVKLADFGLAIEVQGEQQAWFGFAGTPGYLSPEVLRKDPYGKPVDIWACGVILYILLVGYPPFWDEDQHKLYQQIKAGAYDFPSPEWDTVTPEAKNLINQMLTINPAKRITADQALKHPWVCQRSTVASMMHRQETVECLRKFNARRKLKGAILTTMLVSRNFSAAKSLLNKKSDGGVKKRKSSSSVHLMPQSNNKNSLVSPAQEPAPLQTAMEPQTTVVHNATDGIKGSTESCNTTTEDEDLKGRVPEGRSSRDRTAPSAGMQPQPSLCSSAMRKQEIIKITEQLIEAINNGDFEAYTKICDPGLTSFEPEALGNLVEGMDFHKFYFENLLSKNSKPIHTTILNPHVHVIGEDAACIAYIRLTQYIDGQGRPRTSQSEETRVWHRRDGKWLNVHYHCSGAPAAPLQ
Sequence of Receptor-type tyrosine-protein kinase FLT3 (P36888 whole entry): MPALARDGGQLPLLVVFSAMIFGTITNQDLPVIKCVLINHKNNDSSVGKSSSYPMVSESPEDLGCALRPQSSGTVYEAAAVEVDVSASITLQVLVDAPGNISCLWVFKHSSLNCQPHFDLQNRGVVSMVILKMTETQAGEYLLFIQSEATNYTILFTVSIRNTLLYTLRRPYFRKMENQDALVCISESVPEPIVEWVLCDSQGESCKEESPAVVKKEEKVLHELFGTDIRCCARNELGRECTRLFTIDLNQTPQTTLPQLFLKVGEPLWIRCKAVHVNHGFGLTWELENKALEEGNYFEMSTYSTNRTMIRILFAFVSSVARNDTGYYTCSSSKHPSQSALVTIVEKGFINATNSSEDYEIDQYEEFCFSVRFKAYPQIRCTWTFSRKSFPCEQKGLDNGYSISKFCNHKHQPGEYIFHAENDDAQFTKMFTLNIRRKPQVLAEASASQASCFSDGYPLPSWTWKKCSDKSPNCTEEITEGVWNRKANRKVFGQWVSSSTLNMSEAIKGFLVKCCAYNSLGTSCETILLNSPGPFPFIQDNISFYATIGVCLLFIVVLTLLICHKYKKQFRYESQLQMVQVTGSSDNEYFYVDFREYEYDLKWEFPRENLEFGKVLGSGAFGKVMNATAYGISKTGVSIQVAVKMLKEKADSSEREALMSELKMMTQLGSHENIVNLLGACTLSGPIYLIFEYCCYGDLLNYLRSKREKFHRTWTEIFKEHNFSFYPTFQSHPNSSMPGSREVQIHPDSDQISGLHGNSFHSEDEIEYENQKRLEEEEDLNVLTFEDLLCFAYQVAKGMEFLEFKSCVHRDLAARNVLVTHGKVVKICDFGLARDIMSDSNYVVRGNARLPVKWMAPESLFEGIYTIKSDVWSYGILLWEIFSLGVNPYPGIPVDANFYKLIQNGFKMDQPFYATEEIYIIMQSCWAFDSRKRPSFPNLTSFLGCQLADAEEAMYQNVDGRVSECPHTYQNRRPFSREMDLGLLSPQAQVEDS
Sequence of Ribosomal protein S6 kinase beta-1 (P23443 whole entry): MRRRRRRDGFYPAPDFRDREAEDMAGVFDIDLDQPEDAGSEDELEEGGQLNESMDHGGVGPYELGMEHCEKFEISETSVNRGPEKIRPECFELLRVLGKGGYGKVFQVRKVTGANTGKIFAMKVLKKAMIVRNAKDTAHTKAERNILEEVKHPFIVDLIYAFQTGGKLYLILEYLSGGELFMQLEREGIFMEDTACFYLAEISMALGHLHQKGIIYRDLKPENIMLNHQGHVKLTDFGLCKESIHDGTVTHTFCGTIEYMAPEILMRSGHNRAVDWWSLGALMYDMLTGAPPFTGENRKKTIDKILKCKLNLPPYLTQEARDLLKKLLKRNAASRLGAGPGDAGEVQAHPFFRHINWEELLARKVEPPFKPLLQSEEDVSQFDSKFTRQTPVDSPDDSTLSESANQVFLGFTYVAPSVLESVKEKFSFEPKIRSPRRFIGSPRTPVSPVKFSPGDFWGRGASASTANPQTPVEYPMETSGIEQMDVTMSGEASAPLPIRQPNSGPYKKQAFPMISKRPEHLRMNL
Sequence of Activin receptor type-1 (Q04771 whole entry): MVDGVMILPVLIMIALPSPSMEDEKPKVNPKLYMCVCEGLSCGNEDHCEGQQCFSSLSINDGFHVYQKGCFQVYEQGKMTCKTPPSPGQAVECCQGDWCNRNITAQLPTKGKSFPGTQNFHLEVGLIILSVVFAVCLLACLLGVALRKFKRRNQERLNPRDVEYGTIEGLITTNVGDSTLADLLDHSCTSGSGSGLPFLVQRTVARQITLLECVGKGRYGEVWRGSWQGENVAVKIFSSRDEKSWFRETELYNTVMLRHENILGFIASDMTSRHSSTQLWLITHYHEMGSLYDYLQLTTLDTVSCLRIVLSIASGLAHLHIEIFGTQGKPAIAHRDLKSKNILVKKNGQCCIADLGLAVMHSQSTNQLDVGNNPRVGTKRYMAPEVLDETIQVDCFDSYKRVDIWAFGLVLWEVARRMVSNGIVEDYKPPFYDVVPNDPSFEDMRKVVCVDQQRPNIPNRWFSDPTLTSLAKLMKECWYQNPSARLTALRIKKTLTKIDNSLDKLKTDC
Sequence of Ephrin type-A receptor 2 (P29317 whole entry): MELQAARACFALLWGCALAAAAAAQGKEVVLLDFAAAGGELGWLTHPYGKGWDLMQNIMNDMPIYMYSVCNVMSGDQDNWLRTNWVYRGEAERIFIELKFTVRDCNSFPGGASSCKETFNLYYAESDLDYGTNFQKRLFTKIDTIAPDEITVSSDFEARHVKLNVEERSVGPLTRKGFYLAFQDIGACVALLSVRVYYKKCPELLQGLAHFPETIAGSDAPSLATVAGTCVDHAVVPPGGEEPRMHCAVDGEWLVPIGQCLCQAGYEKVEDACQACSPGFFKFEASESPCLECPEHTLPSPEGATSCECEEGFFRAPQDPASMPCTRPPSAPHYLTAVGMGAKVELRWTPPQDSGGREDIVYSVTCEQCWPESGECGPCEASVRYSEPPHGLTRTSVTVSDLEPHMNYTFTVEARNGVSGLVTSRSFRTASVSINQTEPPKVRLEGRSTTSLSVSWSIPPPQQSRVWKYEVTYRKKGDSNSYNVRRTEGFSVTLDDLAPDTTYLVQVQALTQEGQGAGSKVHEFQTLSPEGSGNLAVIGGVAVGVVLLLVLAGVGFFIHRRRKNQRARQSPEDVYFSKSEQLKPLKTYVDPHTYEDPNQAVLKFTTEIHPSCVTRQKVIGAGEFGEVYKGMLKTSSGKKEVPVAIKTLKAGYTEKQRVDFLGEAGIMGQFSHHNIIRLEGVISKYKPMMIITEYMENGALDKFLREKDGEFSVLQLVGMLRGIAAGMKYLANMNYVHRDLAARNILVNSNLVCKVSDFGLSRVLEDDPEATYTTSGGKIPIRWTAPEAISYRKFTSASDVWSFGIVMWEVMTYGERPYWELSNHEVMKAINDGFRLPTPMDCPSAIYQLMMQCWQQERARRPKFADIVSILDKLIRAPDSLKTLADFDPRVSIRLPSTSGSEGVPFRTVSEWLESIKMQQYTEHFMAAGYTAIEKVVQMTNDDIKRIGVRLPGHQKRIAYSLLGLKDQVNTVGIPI
Sequence of Testis-specific serine/threonine-protein kinase 2 (Q96PF2 whole entry): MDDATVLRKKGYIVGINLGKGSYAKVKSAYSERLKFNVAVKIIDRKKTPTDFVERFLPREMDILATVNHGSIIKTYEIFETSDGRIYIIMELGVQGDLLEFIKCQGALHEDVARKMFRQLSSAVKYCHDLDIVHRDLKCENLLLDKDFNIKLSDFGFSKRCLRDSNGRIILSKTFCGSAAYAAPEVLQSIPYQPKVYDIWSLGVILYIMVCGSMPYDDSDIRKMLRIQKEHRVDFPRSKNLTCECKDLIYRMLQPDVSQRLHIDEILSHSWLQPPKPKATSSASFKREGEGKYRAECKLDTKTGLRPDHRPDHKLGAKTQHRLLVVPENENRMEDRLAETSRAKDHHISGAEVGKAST
Sequence of Serine/threonine-protein kinase Nek2 (P51955 whole entry): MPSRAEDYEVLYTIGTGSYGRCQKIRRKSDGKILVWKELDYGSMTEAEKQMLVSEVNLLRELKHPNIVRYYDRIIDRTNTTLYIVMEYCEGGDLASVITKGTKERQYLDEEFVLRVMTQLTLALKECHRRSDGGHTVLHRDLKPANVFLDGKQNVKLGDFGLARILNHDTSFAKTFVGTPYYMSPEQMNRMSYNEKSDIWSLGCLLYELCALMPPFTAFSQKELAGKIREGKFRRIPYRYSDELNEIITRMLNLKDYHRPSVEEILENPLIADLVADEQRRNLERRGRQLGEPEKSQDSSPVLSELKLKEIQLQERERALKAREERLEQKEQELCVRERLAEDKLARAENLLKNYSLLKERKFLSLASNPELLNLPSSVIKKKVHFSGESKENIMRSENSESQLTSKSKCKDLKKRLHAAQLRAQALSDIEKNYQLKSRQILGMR

For `Clc1cc(NC2CCCCC2)nc(-c2c[nH]c3ncccc23)n1`, the Ki in assay [1] was > 0.2 µM (inactive); in [2], 2.51 µM (active); on Activin receptor type-1 it was > 3.98 µM (inactive); in assay [3] it was > 2 µM (inactive); in [4] it was 3.98 µM (active); in assay [5], 0.316 µM (active). Also, the Ki in assay [6] was > 2 µM (inactive); in [7] it was > 1.58 µM (inactive); in assay [8] it was > 0.1 µM (inactive); on Ephrin type-A receptor 2, > 3.16 µM (inactive); in [9], > 1.58 µM (inactive); in [10] it was 0.1 µM (active). Moreover, the Ki in [11] was > 5.01 µM (inactive); in assay [12] it was 1.58 µM (active); in assay [13], > 2.51 µM (inactive); in assay [14], > 3.98 µM (inactive); in assay [15], 6.31 µM (active); in assay [16], 1.26 µM (active). For the same compound, the Ki in assay [17] was > 2 µM (inactive); in assay [18], > 1.58 µM (inactive); in assay [19], 6.31 µM (active); in [20], > 2.51 µM (inactive); in assay [21], 1.26 µM (active); in assay [22], > 2.51 µM (inactive). The Ki in assay [23] was 2.51 µM (active); in [24], 0.398 µM (active); in [25] it was > 3.16 µM (inactive); in [26] it was > 6.31 µM (inactive); in assay [27], 2.51 µM (active); in [28], 1.26 µM (active). The Ki in [29] was 2 µM (active); in assay [30], 0.501 µM (active).
For `Cc1ccc(/C=C2/C(=O)c3ccc(C(=O)O)cc3C2=O)o1`, the IC50 is 294 µM (active) in [31], 40.1 µM (active) at Genome polyprotein, 1.65 µM (active) in [32] and 174 µM (active) in assay [33].
